Laboratory results taken from US11884676B2, “Substituted pyrimido[1,2-b]pyridazines as positive allosteric modulators of the muscarinic acetylcholine receptor M4” (Vanderbilt University, priority 2020, dated 2024).

Biological target: T1, Human M4 (Homo sapiens, UniProt P08173)
T1 construct: expressed in transfected cells
T1 sequence (P08173 1-479): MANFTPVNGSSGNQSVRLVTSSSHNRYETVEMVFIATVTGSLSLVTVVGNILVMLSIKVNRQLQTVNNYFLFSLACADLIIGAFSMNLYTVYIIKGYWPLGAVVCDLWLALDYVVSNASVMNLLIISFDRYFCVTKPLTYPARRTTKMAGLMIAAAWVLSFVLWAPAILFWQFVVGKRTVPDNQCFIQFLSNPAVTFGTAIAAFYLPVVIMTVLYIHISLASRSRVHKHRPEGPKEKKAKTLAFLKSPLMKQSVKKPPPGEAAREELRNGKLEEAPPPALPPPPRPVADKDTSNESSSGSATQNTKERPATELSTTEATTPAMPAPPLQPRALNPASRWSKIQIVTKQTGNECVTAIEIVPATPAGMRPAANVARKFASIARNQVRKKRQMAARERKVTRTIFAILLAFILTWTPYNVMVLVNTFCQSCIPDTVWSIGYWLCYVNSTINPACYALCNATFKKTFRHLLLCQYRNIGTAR
Assay: mAChR M4 cell-based functional assay (calcium flux, PAM mode)
Set-up: Emax: dose or concentration left out as unconfirmed
Conditions: for Emax at 30 µM: CHO-K1, % ACh maximum at 30 μM; for Emax at 30 µM / EC50: hM4-Gqi5 CHO-K1 cells; for EC50: concentration-dependent increase in the EC20 acetylcholine response
Protocol: Human and rat M4 cDNAs, along with the chimeric G protein Gqi5, were transfected into Chinese hamster ovary (CHO-K1) cells purchased from the American Type Culture Collection using Lipofectamine2000. hM4-Gqi5 cells were grown in Ham's F-12 medium containing 10% heat-inactivated fetal bovine serum (FBS), 20 mM HEPES, 50 μg/mL G418 sulfate, and 500 μg/mL Hygromycin B. rM4-Gqi5 cells were grown in DMEM containing 10% heat-inactivated FBS, 20 mM HEPES, 400 μg/mL G418 sulfate, and 500 μg/mL Hygromycin B.
For high throughput measurement of agonist-evoked increases in intracellular calcium, CHO-K1 cells stably expressing muscarinic receptors were plated in growth medium lacking G418 and hygromycin at 15,000 cells/20 μL/well in Greiner 384-well black-walled, tissue culture (TC)-treated, clear-bottom plates (VWR). Cells were incubated overnight at 37° C. and 5% CO2. The next day, cells were washed using an ELX 405 (BioTek) with assay buffer; the final volume was then aspirated to 20 μL. Next, 20 μL of a 2.3 μM stock of Fluo-4/acetoxymethyl ester (Invitrogen, Carlsbad, CA), prepared as a 2.3 mM stock in DMSO and mixed in a 1:1 ratio with 10% (w/v) Pluronic F-127 and diluted in assay buffer, was added to the wells and the cell plates were incubated for 50 min at 37° C. and 5% CO2. Dye was removed by washing with the ELX 405 and the final volume was aspirated to 20 μL. Compound master plates were formatted in an 11 point concentration-response curve (CRC) format (1:3 dilutions) in 100% DMSO with a starting concentration of 10 mM using a BRAVO liquid handler (Agilent). Test compound CRCs were then transferred to daughter plates (240 nL) using the Echo acoustic plate reformatter (Labcyte, Sunnyvale, CA) and then diluted into assay buffer (40 μL) to a 2× stock using a Thermo Fisher Combi (Thermo Fisher Scientific, Waltham, MA).
Calcium flux was measured using the Functional Drug Screening System (FDSS) 6000 or 7000 (Hamamatsu Corporation, Tokyo, Japan) as an increase in the fluorescent static ratio. Compounds were applied to cells (20 μL, 2×) using the automated system of the FDSS at 2-4 seconds into the protocol and the data were collected at 1 Hz. At 144 seconds, 10 μL of an EC20 concentration of the muscarinic receptor agonist acetylcholine was added (5×), followed by the addition of 12 μL of an EC80 concentration of acetylcholine at the 230 second time point (5×). Agonist activity was analyzed as a concentration-dependent increase in calcium mobilization upon compound addition. Positive allosteric modulator activity was analyzed as a concentration-dependent increase in the EC20 acetylcholine response. Antagonist activity was analyzed as a concentration-dependent decrease in the EC80 acetylcholine response. Concentration-response curves were generated using a four-parameter logistical equation in XLFit curve fitting software (IDBS, Bridgewater, NJ) for Excel (Microsoft, Redmond, WA) or Prism (GraphPad Software, Inc., San Diego, CA).
Compounds were synthesized as described above. Activity (EC50 and Emax) was determined in the mAChR M4 cell-based functional assay as described above and the data are shown in Table 2. The compound number corresponds to the compound numbers used in Examples 1 to 11 and Tables 1.

Row | Structure (SMILES) | Emax at 30 µM [%] | EC50 [µM] | Emax (CHO-K1, read-out: Human M4 Emax (%)*) [%]
1 | [2H]C1(Oc2ccc3c(c2)OCCO3)CCN(c2nn3c(=O)cc(C)nc3cc2C)CC1 [Compound 62, 7-(4-((2,3-dihydrobenzo[b][1,4]dioxin-6-yl)oxy)piperidin-1-yl-4-d)-2,8-dimethyl-4H-pyrimido[1,2-b]pyridazin-4-one] | 99 | 0.047 | –
2 | [2H]C1(Oc2ccc3c(c2)OC([2H])([2H])C([2H])([2H])O3)CCN(c2nn3c(=O)cc(C(C)C)nc3c(C)c2C)CC1 [Compound 96, 7-(4-((2,3-dihydrobenzo[b][1,4]dioxin-6-yl-2,2,3,3-d4)oxy)piperidin-1-yl-4-d)-2-isopropyl-8,9-dimethyl-4H-pyrimido[1,2-b]pyridazin-4-one] | 85 | 0.099 | –
3 | Cc1cc2nccc(=O)n2nc1N1CC[C@@H](Oc2ccc3c(c2)OCCC3)[C@H](F)C1 [Compound 57, 7-((3R,4R)-4-(chroman-7-yloxy)-3-fluoropiperidin-1-yl)-8-methyl-4H-pyrimido[1,2-b]pyridazin-4-one] | 83 | 0.149 | –
4 | Cc1cc(=O)n2nc(N3CC[C@@H](Oc4ccc5c(c4)OCCO5)[C@@H](F)C3)c(C)cc2n1 [Compound 33, 7-((3S,4R)-4-((2,3-dihydrobenzo[b][1,4]dioxin-6-yl)oxy)-3-fluoropiperidin-1-yl)-2,8-dimethyl-4H-pyrimido[1,2-b]pyridazin-4-one] | 117 | 0.04 | –
5 | [2H]C1([2H])Oc2ccc(O[C@H]3CCN(c4nn5c(=O)cc(COC)nc5c(C)c4C)C[C@@H]3F)cc2OC1([2H])[2H] [Compound 120, 7-((3S,4S)-4-((2,3-dihydrobenzo[b][1,4]dioxin-6-yl-2,2,3,3-d4)oxy)-3-fluoropiperidin-1-yl)-2-(methoxymethyl)-8,9-dimethyl-4H-pyrimido[1,2-b]pyridazin-4-one] | 106 | 0.162 | –
6 | Cc1cc2nccc(=O)n2nc1N1CC[C@@H](Oc2ccc3c(c2)OCCO3)[C@H](C)C1 (single isomer, unassigned) [Compound 114, 7-((3R,4R) or (3S,4S))-4-((2,3-dihydrobenzo[b][1,4]dioxin-6-yl)oxy)-3-methylpiperidin-1-yl)-8-methyl-4H-pyrimido[1,2-b]pyridazin-4-one] | 102 | 0.16 | –
7 | [2H]C1([2H])Oc2cc(OC3CCN(c4nn5c(=O)c(Cl)cnc5cc4C)CC3)cc(C)c2OC1([2H])[2H] [Compound 27, 3-chloro-8-methyl-7-(4-((8-methyl-2,3-dihydrobenzo[b][1,4]dioxin-6-yl-2,2,3,3-d4)oxy)piperidin-1-yl)-4H-pyrimido[1,2-b]pyridazin-4-one] | 79 | 0.108 | –
8 | Cc1ccc(OC2CCN(c3nn4c(=O)ccnc4c(C)c3C)CC2)cc1 [Compound 77, 8,9-dimethyl-7-(4-(p-tolyloxy)piperidin-1-yl)-4H-pyrimido[1,2-b]pyridazin-4-one] | 101 | 0.091 | –
9 | [2H]C1([2H])Oc2ccc(OC3CCN(c4nn5c(=O)cc(C(F)(F)F)nc5cc4C)CC3)cc2OC1([2H])[2H] [Compound 6, 7-(4-((2,3-Dihydrobenzo[b][1,4]dioxin-6-yl-2,2,3,3-d4)oxy)piperidin-1-yl)-8-methyl-2-(trifluoromethyl)-4H-pyrimido[1,2-b]pyridazin-4-one] | 91 | 0.016 | –
10 | Cc1c(N2CCC(Oc3ccc4c(c3)OCCO4)CC2)nn2c(=O)cc(C(C)C)nc2c1C [Compound 12, 7-(4-((2,3-Dihydrobenzo[b][1,4]dioxin-6-yl)oxy)piperidin-1-yl)-2-isopropyl-8,9-dimethyl-4H-pyrimido[1,2-b]pyridazin-4-one] | 103 | 0.059 | –
11 | Cc1ccc(OC2CCN(c3nn4c(=O)ccnc4c(C)c3C)CC2)cn1 [Compound 86, 8,9-dimethyl-7-(4-((6-methylpyridin-3-yl)oxy)piperidin-1-yl)-4H-pyrimido[1,2-b]pyridazin-4-one] | 101 | 0.341 | –
12 | [2H]C1([2H])Oc2ccc(OC3CCN(c4nn5c(=O)c(C)cnc5cc4C)CC3)cc2OC1([2H])[2H] [Compound 29, 7-(4-((2,3-dihydrobenzo[b][1,4]dioxin-6-yl-2,2,3,3-d4)oxy)piperidin-1-yl)-3,8-dimethyl-4H-pyrimido[1,2-b]pyridazin-4-one] | 80 | 0.043 | –
13 | [2H]C1(Oc2ccc3c(c2)OC([2H])([2H])C([2H])([2H])O3)CCN(c2nn3c(=O)cc(C(F)(F)F)nc3cc2C)CC1 [Compound 45, 7-(4-((2,3-dihydrobenzo[b][1,4]dioxin-6-yl-2,2,3,3-d4)oxy)piperidin-1-yl-4-d)-8-methyl-2-(trifluoromethyl)-4H-pyrimido[1,2-b]pyridazin-4-one] | 77 | 0.026 | –
14 | Cc1c(N2CCC(Oc3ccc4c(c3)OCCO4)CC2)nn2c(=O)ccnc2c1N1CCC1 [Compound 127, 9-(Azetidin-1-yl)-7-(4-((2,3-dihydrobenzo[b][1,4]dioxin-6-yl)oxy)piperidin-1-yl)-8-methyl-4H-pyrimido[1,2-b]pyridazin-4-one] | – | 1.6 | 58
15 | [2H]C1([2H])Oc2ccc(OC3CCN(c4nn5c(=O)ccnc5c(C)c4C)CC3)cc2OC1([2H])[2H] [Compound 2, 7-(4-((2,3-Dihydrobenzo[b][1,4]dioxin-6-yl-2,2,3,3-d4)oxy)piperidin-1-yl)-8,9-dimethyl-4H-pyrimido[1,2-b]pyridazin-4-one] | 100 | 0.026 | –
16 | [2H]C1([2H])Oc2ccc(OC3CCN(c4nn5c(=O)c(C)c(C)nc5cc4C)CC3)cc2OC1([2H])[2H] [Compound 4, 7-(4-((2,3-Dihydrobenzo[b][1,4]dioxin-6-yl-2,2,3,3-d4)oxy)piperidin-1-yl)-2,3,8-trimethyl-4H-pyrimido[1,2-b]pyridazin-4-one] | 90 | 0.036 | –
17 | [2H]C1(Oc2ccc3c(c2)OCCO3)CCN(c2nn3c(=O)c(F)c(C)nc3cc2C)CC1 [Compound 50, 7-(4-((2,3-dihydrobenzo[b][1,4]dioxin-6-yl)oxy)piperidin-1-yl-4-d)-3-fluoro-2,8-dimethyl-4H-pyrimido[1,2-b]pyridazin-4-one] | 93 | 0.009 | –
18 | COCc1ccc(OC2CCN(c3nn4c(=O)ccnc4cc3C)CC2)cn1 [Compound 76, 7-(4-((6-(methoxymethyl)pyridin-3-yl)oxy)piperidin-1-yl)-8-methyl-4H-pyrimido[1,2-b]pyridazin-4-one] | 60 | > 10 | –
19 | Cc1cc2nccc(=O)n2nc1N1CCC(Oc2ccc(C(C)C)cc2)CC1 [Compound 90, 7-(4-(4-isopropylphenoxy)piperidin-1-yl)-8-methyl-4H-pyrimido[1,2-b]pyridazin-4-one] | 63 | 1.11 | –
20 | [2H]C1([2H])Oc2cc(OC3CCN(c4nn5c(=O)ccnc5cc4C)CC3)cc(F)c2OC1([2H])[2H] [Compound 136, 7-(4-((8-fluoro-2,3-dihydrobenzo[b][1,4]dioxin-6-yl-2,2,3,3-d4)oxy)piperidin-1-yl)-8-methyl-4H-pyrimido[1,2-b]pyridazin-4-one] | 97 | 0.073 | –
